According to PubChem BioAssay AID602279 (Broad Institute, 2012):
The source made the active and inactive calls.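 The calls were made as follows: active = fitted curve reaches 40% growth rescue activation at or below the top valid tested concentration; inconclusive = flat fit between 30 and 70%, or poor fit quality; inactive = activity opposite to the expected rise, and the rest.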

Experiments:
[1] = test system: S. cerevisiae alpha-synuclein toxicity rescue, OD600 growth, 24 h; test: yeast growth restoration under alpha-synuclein stress, dose response, S. cerevisiae, OD600, dry powder (AID 602279)
[2] = as above; details: S. cerevisiae alpha-synuclein toxicity rescue, OD600 growth, 24 h; at 26 µM (top of the series)

Compound	AC40 [1]	growth rescue activation [2]
Fc1cc(NCc2ccccc2)nc(NCc2ccccc2)n1	> 26 µM (inactive)	
O=c1c2ccccc2[nH]c(=S)n1CCC1=CCCCC1		18.9% (inactive)
CC(C)c1ccc(C2NC(=O)c3ccccc3O2)cc1 (centres undefined)	> 26 µM (inactive)	
Cc1ccccc1CSc1nsc(N)n1	> 26 µM (inactive)	
